The values below come from US9326513B2, “Fungicidal compositions” (Syngenta Participations AG, priority 2011, dated 2016).

Holding throughout (assay type): in vivo
Settings in all cases: foliar, compared to untreated control leaf disks, read-out: disease control

The subject of one assay is Pyrenophora teres. Nature of the assay: Pyrenophora teres / barley / leaf disc preventative (net blotch). The text has this: Pyrenophora teres/Barley/Leaf Disc Preventative (Net Blotch) Barley leaf segments cv. Hasso were placed on agar in a multiwell plate (24-well format) and sprayed with the formulated test compound diluted in water. The leaf segments were inoculated with a spore suspension of the fungus 2 days after application.

Assay [1] relates to Blumeria graminis f. sp. tritici (Erysiphe graminis f. sp. tritici). The assay can be described thus: Blumeria graminis f. sp. tritici / wheat / leaf disc preventative (powdery mildew on wheat). The procedure, abridged: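 Preventative leaf-disc test: compound (200 ppm) was sprayed onto cv. Kanzler wheat segments, which were dusted with conidia from infected plants 1 day after application. After incubation at 20° C and 60% rh, disease control relative to untreated segments was rated 6-8 days after application.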

Assay [2] has as its system Puccinia recondita f. sp. tritici. The assay can be described thus: Puccinia recondita f. sp. tritici / wheat / leaf disc curative (brown rust). As for the experimental part: Puccinia recondita f. sp. tritici/Wheat/Leaf Disc Curative (Brown Rust) Wheat leaf segments cv. Kanzler are placed on agar in multiwell plates (24-well format). The leaf segments are inoculated with a spore suspension of the fungus. Plates were stored in darkness at 19° C. and 75% rh. The formulated test compound diluted in water was applied 1 day after inoculation.

The test system is the same in assay [3]. The assay can be described thus: Puccinia recondita f. sp. tritici / wheat / leaf disc preventative (brown rust). The text has this: Puccinia recondita f. sp. tritici/Wheat/Leaf Disc Preventative (Brown Rust) Wheat leaf segments cv. Kanzler were placed on agar in multiwell plates (24-well format) and sprayed with the formulated test compound diluted in water. The leaf disks were inoculated with a spore suspension of the fungus 1 day after application.

With `CCN(C)/C=N/c1cc(Br)c(OCCCC=C(C)C)nc1C` [Q.079], in the assay with Pyrenophora teres, the pest or weed control at 200 ppm was at least 50%.

Turning to `CCN(C)/C=N/c1cc(Br)c(OC(C)c2cc(F)cc(F)c2)nc1C` (stereo not drawn) [Q.256], the pest or weed control at 200 ppm in the assay with Pyrenophora teres was at least 50%.

`CCN(C)/C=N/c1cc(Br)c(OCC[Si](CC)(CC)CC)nc1C` [Q.274]: the pest or weed control at 200 ppm in assay [1], in assay [2] and in assay [3] was at least 50% each time.

Take `CCN(C)/C=N/c1cc(Br)c(OCc2snc(-c3ccccc3)c2Cl)nc1C` [Q.109]: the pest or weed control at 200 ppm in assay [1], in assay [2] and in assay [3] was at least 50% throughout.

As for `CCN(C)/C=N/c1ccc(OC(C)c2cc(F)cc(F)c2)nc1C` (stereo not drawn) [Q.181], the pest or weed control at 200 ppm in assay [1], in assay [2] and in assay [3] was at least 50% throughout.

With `CCCc1ccccc1C(C)Oc1nc(C)c(/N=C/N(C)CC)cc1Br` (stereo not drawn) [Q.287], the pest or weed control at 200 ppm in assay [1], in assay [2] and in assay [3] was at least 50% throughout.

In the case of `CCN(C)/C=N/c1cc(Br)c(OC(C)c2ccc(C)cc2)nc1C` (stereo not drawn) [Q.112], the pest or weed control at 200 ppm in assay [1], in assay [2] and in assay [3] was at least 50% throughout.

For `CCC(Oc1ccc(/N=C/N(C)CC)c(C)n1)c1cc(C)cc(C)c1` (stereo not drawn) [Q.359], the pest or weed control at 200 ppm in assay [1], in assay [2] and in assay [3] was at least 50% in each case.

Consider `CCOC(=O)COc1nc(C)c(/N=C/N(C)CC)cc1C` [Q.065], for which the pest or weed control at 200 ppm in assay [1], in assay [2] and in assay [3] was at least 50% in each case.

`CCCc1ccccc1COc1nc(C)c(/N=C/N(C)CC)cc1Br` [Q.345]: the pest or weed control at 200 ppm in assay [1], in assay [2] and in assay [3] was at least 50% in each case.

`CCN(C)/C=N/c1cc(Br)c(OCC2CC(C)=C(C)C2)nc1C` [Q.134]: the pest or weed control at 200 ppm in assay [1], in assay [2] and in assay [3] was at least 50% throughout.

As to `Cc1nc(OC(C)c2cc(F)cc(F)c2)c(Br)cc1/N=C/N(C)C(C)C` (stereo not drawn) [Q.188], the pest or weed control at 200 ppm in assay [1], in assay [2] and in assay [3] was at least 50% each time.

On to `CCN(C)/C=N/c1cc(Br)c(OCc2ccccc2CCc2ccccc2)nc1C` [Q.309], for which the pest or weed control at 200 ppm in assay [1], in assay [2] and in assay [3] was at least 50% each time.

On to `CCN(C)/C=N/c1cc(Br)c(OCc2cc(-c3ccc(F)cc3)ns2)nc1C` [Q.123], for which the pest or weed control at 200 ppm in assay [1], in assay [2] and in assay [3] was at least 50% in each case.

Consider `CCN(C)/C=N/c1cc(Br)c(O[C@H]2CC[C@H](c3ccccc3)CC2)nc1C` [Q.270], for which the pest or weed control at 200 ppm in assay [1], in assay [2] and in assay [3] was at least 50% throughout.

Consider `CCN(C)/C=N/c1cc(Br)c(OCc2cc(C(F)(F)F)cc(C(F)(F)F)c2)nc1C` [Q.152], for which the pest or weed control at 200 ppm in assay [1], in assay [2] and in assay [3] was at least 50% in each case.

As to `CCN(C)/C=N/c1cc(Br)c(OC2C=CC(=O)CC2)nc1C` (stereo not drawn) [Q.281], the pest or weed control at 200 ppm in assay [1], in assay [2] and in assay [3] was at least 50% throughout.

Take `C/C=C/CCCCOc1nc(C)c(/N=C/N(C)CC)cc1Br` [Q.132]: the pest or weed control at 200 ppm in assay [1], in assay [2] and in assay [3] was at least 50% throughout.

For `CCN(C)/C=N/c1cc(Br)c(OCc2cccc(N(C)C)c2)nc1C` [Q.177], the pest or weed control at 200 ppm in assay [1], in assay [2] and in assay [3] was at least 50% throughout.

On to `C=CCC(C)Oc1nc(C)c(/N=C/N(C)CC)cc1Br` (stereo not drawn) [Q.145], for which the pest or weed control at 200 ppm in assay [1], in assay [2] and in assay [3] was at least 50% each time.

Consider `CCC(Oc1nc(C)c(/N=C/N(C)CC)cc1Br)c1cc(F)cc(F)c1` (stereo not drawn) [Q.327], for which the pest or weed control at 200 ppm in assay [1], in assay [2] and in assay [3] was at least 50% in each case.

As for `CCN(C)/C=N/c1cc(Br)c(OC2CCCC3CCCCC32)nc1C` (stereo not drawn) [Q.049], the pest or weed control at 200 ppm in assay [1], in assay [2] and in assay [3] was at least 50% each time.

For `Cc1cc(C)cc(C(C)Oc2ccc(/N=C/N(C)C(C)C)c(C)n2)c1` (stereo not drawn) [Q.360], the pest or weed control at 200 ppm in assay [1], in assay [2] and in assay [3] was at least 50% throughout.

On to `CCN(C)/C=N/c1cc(Br)c(OCc2cc(F)c(F)c(F)c2)nc1C` [Q.317], for which the pest or weed control at 200 ppm in assay [1], in assay [2] and in assay [3] was at least 50% throughout.

As for `C#CC(C)Oc1nc(C)c(/N=C/N(C)CC)cc1Br` (stereo not drawn) [Q.080], the pest or weed control at 200 ppm in assay [1], in assay [2] and in assay [3] was at least 50% each time.

On to `C#CCOc1nc(C)c(/N=C/N(C)CC)cc1Br` [Q.078], for which the pest or weed control at 200 ppm in assay [1], in assay [2] and in assay [3] was at least 50% each time.

On to `CCN(C)/C=N/c1cc(Br)c(OC(C)c2ccccc2C(C)C)nc1C` (stereo not drawn) [Q.307], for which the pest or weed control at 200 ppm in assay [1], in assay [2] and in assay [3] was at least 50% in each case.

As for `CCN(C)/C=N/c1cc(Br)c(OC2CCCCCC2)nc1C` [Q.171], the pest or weed control at 200 ppm in assay [1], in assay [2] and in assay [3] was at least 50% each time.

On to `CCN(C)/C=N/c1ccc(OC2CCCCC2C)nc1C` (stereo not drawn) [Q.341], for which the pest or weed control at 200 ppm in assay [1], in assay [2] and in assay [3] was at least 50% in each case.

With `CCN(C)/C=N/c1cc(Br)c(OC2CCc3ccc(Br)cc3C2)nc1C` (stereo not drawn) [Q.067], in the assay with Pyrenophora teres, the pest or weed control at 200 ppm was at least 50%.

For the compound `CCN(C)/C=N/c1cc(Br)c(OC(C)c2ccc3c(c2)CCC3)nc1C` (stereo not drawn) [Q.239], the pest or weed control at 200 ppm in assay [1], in assay [2] and in assay [3] was at least 50% each time.

Regarding `CCN(C)/C=N/c1cc(Br)c(OC(C)c2cc(Cl)cc(Cl)c2)nc1C` (stereo not drawn) [Q.205], the pest or weed control at 200 ppm in assay [1], in assay [2] and in assay [3] was at least 50% throughout.

For the compound `CCN(C)/C=N/c1ccc(OC(C)Cc2ccccc2)nc1C` (stereo not drawn) [Q.368], the pest or weed control at 200 ppm in assay [1], in assay [2] and in assay [3] was at least 50% each time.

Turning to `CCN(C)/C=N/c1cc(Br)c(OCCCC2CC2)nc1C` [Q.356], the pest or weed control at 200 ppm in assay [1], in assay [2] and in assay [3] was at least 50% each time.

As to `CC#Cc1cc(/N=C/N(C)CC)c(C)nc1OC(C)c1cc(F)cc(F)c1` (stereo not drawn) [Q.230], the pest or weed control at 200 ppm in assay [1], in assay [2] and in assay [3] was at least 50% in each case.

As to `CCN(C)/C=N/c1cc(Br)c(O[C@@H]2C[C@@H]3ON=C(C)[C@@H]3C2)nc1C` [Q.068], the pest or weed control at 200 ppm in assay [1], in assay [2] and in assay [3] was at least 50% in each case.

As for `CCN(C)/C=N/c1cc(Br)c(OCc2ccccc2OC)nc1C` [Q.330], the pest or weed control at 200 ppm in assay [1], in assay [2] and in assay [3] was at least 50% in each case.

On to `CCN(C)/C=N/c1cc(Br)c(OC2Cc3cc(Br)c(Br)cc3C2)nc1C` [Q.030], for which the pest or weed control at 200 ppm in assay [1], in assay [2] and in assay [3] was at least 50% throughout.

As to `CSc1ccccc1COc1ccc(/N=C/N(C)C(C)C)c(C)n1` [Q.339], the pest or weed control at 200 ppm in assay [1], in assay [2] and in assay [3] was at least 50% in each case.

As for `CCN(C)/C=N/c1cc(Br)c(OCc2cc(-c3ccccc3)no2)nc1C` [Q.073], the pest or weed control at 200 ppm in assay [1], in assay [2] and in assay [3] was at least 50% throughout.

For `C=CCN1CCC(Oc2nc(C)c(/N=C/N(C)CC)cc2Br)CC1` [Q.165], the pest or weed control at 200 ppm in assay [1], in assay [2] and in assay [3] was at least 50% throughout.

On to `CCN(C)/C=N/c1cc(Br)c(OC2C(C)CCCC2C)nc1C` (stereo not drawn) [Q.094], for which the pest or weed control at 200 ppm in assay [1], in assay [2] and in assay [3] was at least 50% in each case.

For the compound `CCN(C)/C=N/c1ccc(OCCc2ccccc2C)nc1C` [Q.350], the pest or weed control at 200 ppm in assay [1], in assay [2] and in assay [3] was at least 50% throughout.
